Where no end group is shown, it is not given here.
Key:
[1] = Loss of inducing activity of purified systemin after acid hydrolysis or proteolytic enzymes; format: physicochemical
[2] = tested on: proteinase Inhibitor I and II; assay: Proteinase inhibitor inducing activity supplied through cut stems/petioles of young tomato plants, radial immunodiffusion of leaf juice; format: in vivo, tomato (Lycopersicon esculentum)
Method: A search was initiated for systemic signals inducing proteinase Inhibitor I and II genes in tomato leaf extracts. […] The polypeptide was purified using high-performance liquid chromatography (HPLC, see Materials and Methods, below). Inducing activity of the polypeptide was assayed by cutting the petioles of young plants and introducing eluted fractions from column separations into the cut over a period of 30 min. The plants were subsequently transferred to small vials of water, incubated under constant light for 24 hours as described (C. A. Ryan, Plant Physiol. 54, 328, 1974), and the amount of proteinase Inhibitor I and II in the leaf juice was quantified by radial immunodiffusion in agar gels that contained rabbit antiserum to Inhibitor I or Inhibitor II (C. A. Ryan, Anal. Biochem. 19, 434, 1967; R. Trautman, K. Cowan, G. Wagner, Immunochemistry 8, 901, 1971). Over 30,000 young tomato plants were assayed over a 2.5 year period.
The leaves were incubated in solutions containing the synthetic systemin polypeptide and the proteinase inhibitors were assayed as described above in Example 1. Each data point was obtained from assays of the leaves of 36 tomato plants.

[3] = in vivo
[4] = in vivo; cited from earlier work
[5] = supplied to cut stems of young tomato plants

CSCC[C@H](NC(=O)[C@H](CCCCN)NC(=O)[C@@H]1CCCN1C(=O)[C@@H]1CCCN1C(=O)[C@H](CC(=O)O)NC(=O)[C@H](CCCNC(=N)N)NC(=O)[C@H](CCCCN)NC(=O)[C@H](CO)NC(=O)[C@@H]1CCCN1C(=O)[C@@H]1CCCN1C(=O)[C@H](CCCCN)NC(=O)[C@H](CO)NC(=O)[C@H](CCC(N)=O)NC(=O)[C@@H](NC(=O)[C@H](C)N)C(C)C)C(=O)N[C@@H](CCC(N)=O)C(=O)N[C@H](C(=O)N[C@@H](CC(=O)O)C(=O)O)[C@@H](C)O [systemin, NH3 -AVQSKPPSKRDPPKMQTD-COO-]
activity after acid hydrolysis [1]: total loss of activity | activity in the presence of trypsin and other proteolytic enzymes [1]: partial loss of activity | number of tomato plants in which the sample could induce maximal accumulation of proteinase inhibitors ([2]; step 6 sample, approximately 1 μg of protein): 40,000 tomato plants

NH3 -AVQSKPPSKRDPPKMQTD-COO- [synthetic systemin polypeptide]
activity on a molar basis relative to previously reported PIIF oligogalactunonide inducers ([2]; in vivo): about 10^5 times | amount of polypeptide required to produce half maximal accumulation of Inhibitors I and II [2, 5]: About 40 fmol per plant | bioactivity for inducing synthesis and accumulation of Inhibitor I and II compared with native systemin [2, 5]: as effective as the native systemin polypeptide

^14 C-labeled polypeptide: synthetic systemin with [14C] Ala added to residues 2 through 18 (AVQSKPPSKRDPPKMQTD; also: 14C label, positions not clearly stated; UniProt P27058 179-196, looked up)
time for radioactivity to move throughout the leaf [3]: ≤ 30 min | time to identification of radiolabeled systemin in phloem exudate by HPLC [3]: 1 to 2 h

α-1, 4-oligogalacturonides
mobility from wound sites [4]: not found to be mobile
